The values below come from the NIST ThermoML archive (doi:10.1016/j.jct.2019.06.018).

The conditions of series [1]: Crystal; DSC.
The nature of series [2]: Molar enthalpy of transition or fusion. The following applies: Crystal; DSC.

Structures are written as SMILES. Numbers after ± are expanded uncertainties.

With `CC1=NN(c2ccccc2)C(=O)C1` [Edaravone], the Triple point temperature in series [1] came to 400.15 ± 1.2 K. The “Molar enthalpy of transition or fusion” value in series [2] was determined as 7.08 ± 0.956 kcal/mol.
